These are literature values, as cited in patent US20090082738A1, “Natural Anti-Inflammatory Agents for Reducing Pain” (priority 2007, published 2009).

Data set [1] relates to cyclooxygenase (COX).
The test system of data set [2] is moderate or severe knee arthritis population. The settings on record: 1500 mg of glucosamine.

Turning to `C/C=C(/C=O)[C@@H](CC=O)CC(=O)OCCc1ccc(O)cc1` [Oleocanthal], in data set [1], the “inhibition of cyclooxygenase (COX)” value is on record as “non-selective inhibitor of cyclooxygenase (COX)”.

As to `N[C@H]1C(O)O[C@H](CO)[C@@H](O)[C@@H]1O` (some centres unmarked) [glucosamine], the “clinical efficacy compared with Celebrex” value in data set [2] was “superior to the prescription medication Celebrex”.
